Results: patent publication US20080090849A1, “NOVEL PURINE DERIVATIVES, PREPARATION METHOD AND USE AS MEDICINES” (AVENTIS PHARMA S.A., priority 2000, published 2008)
Converted amounts (≈) assume the structure as drawn. Structures can show the parent of a compound that is named as a salt. Where two headings read alike, the source gives them in different places.

Assays:
CaCiv1 = CaCiv1 (Candida albicans, UniProt A0A1D8PH53); assay: Test of inhibition of the activity of CIV-CDK (CIV1); format: biochemical
Sequence of CaCiv1 (A0A1D8PH53 entry or part of it): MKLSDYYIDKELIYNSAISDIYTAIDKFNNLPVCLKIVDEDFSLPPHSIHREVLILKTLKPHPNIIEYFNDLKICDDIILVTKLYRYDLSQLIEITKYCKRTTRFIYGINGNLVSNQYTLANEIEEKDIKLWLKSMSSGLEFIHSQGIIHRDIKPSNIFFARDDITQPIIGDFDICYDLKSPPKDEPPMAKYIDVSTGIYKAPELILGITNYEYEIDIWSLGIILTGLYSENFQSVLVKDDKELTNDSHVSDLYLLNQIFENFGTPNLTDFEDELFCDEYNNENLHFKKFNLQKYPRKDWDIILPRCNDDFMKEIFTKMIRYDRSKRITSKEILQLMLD
Procedure: (Details of the Excipient: Lactose, Talc, Starch, Magnesium Stearate.) Pharmacological Part: 1) Test of Inhibition of the Activity of CIV-CDK (CIV1) a) PREPARATION of the Reagents […]
967 μl Buffer [50 mM Tris-HCl−0.1 M NaCl−pH 7.5]
−0.1% BSA+30 μl Cdk2 (1 mg/ml)
(2)-3× Inhibitor Cocktail
Prepare a 3× range of inhibitor in 3% of DMSO-Buffer
[50 mM Tris-HCl−0.1 M NaCl−pH 7.5]−0.1% BSA
ATP−pH 7.5+1 tablet of protease inhibitors (Complete EDTA Free™) per 5 ml of Buffer b) Carrying Out of the Test
1)—mix 30 μl of the 3× enzyme cocktail (1) with 30 μl of the 3× inhibitor cocktail (2) 2)—add 30 μl of the 3×ATP cocktail (3) (start of the reaction)
3)—incubate for 30 min at room temperature (20 to 25° C.)
4)—stop the reaction by adding 250 μl of Buffer [50 mM Tris-HCl−0.1 M NaCl−pH 7.5]−0.1% BSA−25 mM EDTA 5)—distribute 100 μl into a plate coated with antibodies directed against the reaction substrate 6)—incubate for 60 min at room temperature, stirring gently and then wash 3 times with 300 μl Buffer [50 mM Tris-HCl−0.1 M NaCl−pH 7.5]−0.05% Tween20
9)—Place the plate to dry for 30 min at 37° C.
10)—Place for counting in a scintillation counter c) Results Obtained, Expressed as IC50 Expressed in Micromolar

fungus = assay: Minimum inhibitory concentration (MIC), NCCLS M27-A broth dilution antifungal susceptibility test; format: cell-based; conditions: RPMI 1640 medium, 37° C., visual reading, inhibition of at least 80% of growth; test strain not named
From the text: A constant number of cells of a given strain are exposed to increasing concentrations of an antifungal, under conditions taken from NCCLS (National Committee for Clinical Laboratory Standards, 1997 [reference method for broth dilution antifungal susceptibility testing of yeasts]. Approved Standard M27-A. NCCLS, Villanova, Pa.); the minimum concentration with which a visible reduction in the cloudiness from cell growth was observed (at least 80% relative to a control with no product) is the minimum inhibitory concentration (MIC) of the antifungal for the test strain.
Supplement the L-glutamine-free RPMI 1640 medium (liquid) with L-glutamine (0.3 g/l or 10.5 ml of a solution at 200 mM) and buffer with 34.54 g/l (0.165 M) of M morpholinepropanesulfonic acid (MOPS). Sterilize the medium by filtration. Distribute 100 μl of RPMI medium into each well of a 96-well microplate. Distribute the appropriate volume of the antifungal solution in the first column of the microplate and adjust with medium to 200 μl. Carry out a 2-fold serial dilution in order to establish a range of 11 concentrations in each lane of the microplate. The 12th well of each row will serve as a control for growth. Prepare the cellular suspension from a (liquid or agar) culture or from a frozen vial, dilute it in RPMI medium in order to obtain a cellular suspension at 5×10^3-2×10^4 cells/ml. Distribute 100 μl of the cellular suspension into the microplate. The MIC for all the Candida species was read after 24-48 h, for Cryptococcus and Aspergillus after 48-72 h of incubation at 37° C. in a normal atmosphere. The MIC is read by visual readings by determining the well which contains the lowest dose of antifungal which causes an inhibition of at least 80% of the growth of the fungus.

[1] = CaCiv1 with Cdk2, [33P]ATP, 30 min at room temperature, scintillation counting, read-out: IC50

Compound	IC50 (CaCiv1; [1]) [nM]	MIC (fungus) [µg/mL]	IC50 (CaCiv1) [nM]
N[C@H]1CC[C@H](Nc2nc(Nc3ccc(Cl)cc3)c3nc[nH]c3n2)CC1 [Example 15, Trans-N2-(4-aminocyclohexyl)-N6-(4-chlorophenyl)-9H-purine-2,6-diamine]		100 (≈ 279 µM)	
N[C@H]1CC[C@H](Nc2nc(Nc3ccccc3)c3nc[nH]c3n2)CC1 [Example 11, Trans-N2-(4-aminocyclohexyl)-N6-[4-phenyl]-1H-purine-2,6-diamine dihydrochloride]	2500		
CCCCOC(=O)c1ccc(Nc2nc(N[C@H]3CC[C@H](N)CC3)nc3[nH]cnc23)cc1 [Example 17, Butyl trans-4-[[2-[(4-aminocyclohexyl)amino]-9H-purin-6-yl]amino]benzoate]	5600	12.5 (≈ 29.5 µM)	
N[C@H]1CC[C@H](Nc2nc(Nc3ccc(Cl)c(Cl)c3)c3nc[nH]c3n2)CC1 [Example 16, trans-N2-(4-aminocyclohexyl)-N6-(3,4-dichlorophenyl)-9H-purine-2,6-diamine]	2900	25 (≈ 63.7 µM)	
CCOC(=O)c1ccc(Nc2[nH]c(N[C@H]3CC[C@H](N)CC3)nc3ncnc2-3)cc1 [Example 1, Ethyl trans-4-[[2-[(4-aminocyclohexyl)amino]-1H-purin-6-yl]amino]benzoate dihydrochloride]			500

Continued, in another order:

IC50 (CaCiv1; [1]) [nM]	Compound	MIC (fungus) [µg/mL]	IC50 (CaCiv1) [nM]
4300	CCN(CC)CCOC(=O)c1ccc(Nc2nc(N[C@H]3CC[C@H](N)CC3)nc3[nH]cnc23)cc1 [Example 18, 2-(diethylamino)ethyl trans-4-[[2-[(4-aminocyclohexyl)amino]-9H-purin-6-yl]amino]benzoate]		
3800	N[C@H]1CC[C@H](Nc2nc(Nc3ccc(C(=O)Nc4ccccc4)cc3)c3nc[nH]c3n2)CC1 [Example 19, Trans-4-[[2-[(4-aminocyclohexyl)amino]-9H-purin-6-yl]amino]-N-phenylbenzamide]		
2000	CCOC(=O)c1cccc(Nc2nc(N[C@H]3CC[C@H](N)CC3)nc3[nH]cnc23)c1 [Example 14, Ethyl trans-3-[[2-[(4-aminocyclohexyl)amino]-9H-purin-6-yl]amino]benzoate]		
